The target in one test is BACE1 enzyme (Homo sapiens (Human), UniProt P56817). The test is described as follows: BACE1 Cell-Free Assay (fluorescence polarization, synthetic APP substrate). It is filed as biochemical. As to conditions: geometric mean of 2-7 determinations (values marked b: single determination). From the text: This assay measures the inhibition of the beta-secretase enzyme as it cleaves a non-native peptide.
A synthetic APP substrate that can be cleaved by beta-secretase having N-terminal biotin and made fluorescent by the covalent attachment of Oregon Green at the Cys residue is used to assay beta-secretase activity in the presence or absence of the inhibitory compounds. […] The BACE1 enzyme is affinity purified material from conditioned media of CHO-K1 cells that have been transfected with a soluble BACE construct (BACE1deltaTM96His). Compounds are incubated in a ½ log dose response curve from a top concentration of 100 μM with BACE1 enzyme and the biotinylated fluorescent peptide in 384-well black plates (Thermo Scientific #4318). BACE1 is at a final concentration of 0.1 nM with a final concentration of peptide substrate of 150 nM in a reaction volume of 30 μL assay buffer (100 mM sodium acetate, pH 4.5 (brought to pH with acetic acid), and 0.001% Tween-20). Plates are covered and incubated for 3 hours at 37° C. The reaction is stopped with the addition of 30 μL of 1.5 μM Streptavidin (Pierce, #21125). After a 10 minute incubation at room temperature, plates are read on a PerkinElmer Envision for fluorescent polarization (Ex485 nm/Em530 nm). The activity of the beta-secretase enzyme is detected by changes in the fluorescence polarization that occur when the substrate is cleaved by the enzyme.

Test [1] relates to H4 human neuroglioma cells over-expressing the wild-type human APP695. The test is described as follows: sAPPβ Whole-Cell Assay (in vitro sAPPb assay, ELISA). As to conditions: 18 hours, geometric mean of 2-7 determinations (values marked b: single determination). In kind it is cell-based. Here is the method:
Whole Cell-Free Assay (In Vitro sAPPb Assay):
H4 human neuroglioma cells over-expressing the wild-type human APP695 are treated for 18 hours with compound in a final concentration 1% DMSO. sAPPβ levels are measured using TMB-ELISA with capture APP N-terminal antibody (Affinity BioReagents, OMA1-03132), wild-type sAPPβ specific reporter p192 (Elan), and tertiary anti rabbit-HRP (GE Healthcare).
On the technique in general: An ELISA detects its analyte on a solid surface through an enzyme-linked reagent.

The target of a further test is BACE2 enzyme (Homo sapiens (Human), UniProt Q9Y5Z0). The test is described as follows: BACE2 Cell-free Assay (fluorescence polarization, synthetic substrate). In kind it is biochemical. As to conditions: single determination. The procedure: This assay measures the inhibition of the BACE2 enzyme as it cleaves a non-native peptide. A synthetic substrate that can be cleaved by BACE2 having N-terminal biotin and made fluorescent by the covalent attachment of Oregon Green at the Cys residue is used to assay BACE2 activity in the presence or absence of the inhibitory compounds. The substrate is Biotin-[…]-C(Oregon green)-KK-OH. The BACE2 enzyme is available from Enzo Life Sciences (Cat # BML-SE550). Compounds are incubated in a ½ log dose response curve from a top concentration of 100 μM with BACE2 enzyme and the biotinylated fluorescent peptide in 384-well black plates (Thermo Scientific #4318). BACE2 is at a final concentration of 2.5 nM with a final concentration of peptide substrate of 150 nM in a reaction volume of 30 μL assay buffer (100 mM Sodium Acetate, pH 4.5 (brought to pH with acetic acid), and 0.001% Tween-20). Plates are covered and incubated for 3 hours at 37° C. The reaction is stopped with the addition of 30 μL of 1.5 μM Streptavidin (Pierce, #21125). After a 10 minute incubation at room temperature, plates are read on a PerkinElmer Envision for fluorescent polarization (Ex485 nm/Em530 nm). The activity of the beta-secretase enzyme is detected by changes in the fluorescence polarization that occur when the substrate is cleaved by the enzyme.

The source of these data is patent US8962616B2, “Heterocyclic substituted hexahydropyrano[3,4-d][1,3]thiazin-2-amine compounds” (Pfizer Inc., priority 2012, dated 2015).

Structures can show the parent of a compound that is named as a salt.

For orientation: IC50 means the concentration that inhibits the measured activity by half. Low readings indicate greater potency, high ones weaker potency.

BACE1 enzyme, sequence (P56817 46-457): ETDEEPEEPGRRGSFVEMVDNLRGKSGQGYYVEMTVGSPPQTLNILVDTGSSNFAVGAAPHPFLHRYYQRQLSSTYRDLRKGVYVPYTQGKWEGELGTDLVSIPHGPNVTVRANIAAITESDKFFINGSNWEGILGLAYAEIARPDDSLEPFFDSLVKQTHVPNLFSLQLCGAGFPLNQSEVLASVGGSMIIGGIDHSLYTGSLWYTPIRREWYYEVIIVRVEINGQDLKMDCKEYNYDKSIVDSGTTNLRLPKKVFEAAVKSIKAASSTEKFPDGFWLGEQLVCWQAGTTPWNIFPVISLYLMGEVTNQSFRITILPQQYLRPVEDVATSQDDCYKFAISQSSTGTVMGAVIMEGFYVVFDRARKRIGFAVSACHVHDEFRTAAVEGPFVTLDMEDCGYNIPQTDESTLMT
BACE2 enzyme, sequence (Q9Y5Z0 63-518): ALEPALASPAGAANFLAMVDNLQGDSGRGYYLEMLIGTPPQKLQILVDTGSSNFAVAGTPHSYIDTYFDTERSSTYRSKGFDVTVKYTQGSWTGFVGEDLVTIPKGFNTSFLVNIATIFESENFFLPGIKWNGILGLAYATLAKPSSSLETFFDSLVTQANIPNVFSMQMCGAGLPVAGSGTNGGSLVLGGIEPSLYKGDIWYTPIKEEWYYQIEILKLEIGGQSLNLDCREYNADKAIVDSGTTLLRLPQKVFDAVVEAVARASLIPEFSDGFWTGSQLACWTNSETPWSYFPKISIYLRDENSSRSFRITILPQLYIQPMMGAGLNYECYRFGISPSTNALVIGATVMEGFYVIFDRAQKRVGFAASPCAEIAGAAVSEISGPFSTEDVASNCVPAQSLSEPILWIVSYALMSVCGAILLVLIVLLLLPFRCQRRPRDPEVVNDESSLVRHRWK

Turning to `Cc1nccc([C@H]2C[C@H]3CSC(N)=N[C@@]3(c3ccc(F)cc3F)CO2)n1` [Example 9, (4aR,6R,8aS)-8a-(2,4-Difluorophenyl)-6-(2-methylpyrimidin-4-yl)-4,4-a,5,6,8,8a-hexahydropyrano[3,4-][1,3]thiazin-2-amine], the IC50 against BACE1 enzyme was 583 nM; in test [1] it was 28 nM; against BACE2 enzyme it was over 100000 nM.
The compound `NC1=N[C@@]2(c3ccc(F)cc3F)CO[C@@H](c3ccn(C4CC4)n3)C[C@H]2CS1` [Example 19, (4aR,6R,8aS)-6-(1-cyclopropyl-1H-pyrazol-3-yl)-8a-(2,4-difluorophenyl)-4,4a,5,6,8,8a-hexahydropyrano[3,4-d][1,3]thiazin-2-amine] gave an IC50 against BACE1 enzyme of 444 nM.
In the case of `Cc1coc([C@H]2C[C@H]3CSC(N)=N[C@@]3(c3ccc(F)cc3F)CO2)n1` [Example 4, (4aR,6R,8aS)-8a-(2,4-Difluorophenyl)-6-(4-methyl-1,3-oxazol-2-yl)-4,4-a,5,6,8,8a-hexahydropyrano[3,4-][1,3]thiazin-2-amine], the results for the IC50 (on BACE1 enzyme; in test [1]; against BACE2 enzyme) were 84 nM, 4 nM and 273 nM, respectively.
Regarding “(4aR,6R,8aS)-8a-(2,4-Difluorophenyl)-6-(5-methyl-1,3,4-oxadiazol-2-yl)-4,4-a,5,6,8,8a-hexahydropyrano[3,4-d][1,3]thiazin-2-amine [Example 17]”, the IC50 came to 301 nM at BACE1 enzyme, 10 nM in test [1] and 5560 nM against BACE2 enzyme.
As to `NC1=N[C@@]2(c3ccc(F)cc3F)CO[C@@H](c3nc(C(F)(F)F)co3)C[C@H]2CS1` [Example 20, (4aR,6R,8aS)-8a-(2,4-difluorophenyl)-6-[4-(trifluoromethyl)-1,3-oxazol-2-yl]-4,4a,5,6,8,8a-hexahydropyrano[3,4-d][1,3]thiazin-2-amine], the IC50 against BACE1 enzyme came to 467 nM; in test [1] (Homo sapiens), 14 nM; against BACE2 enzyme, 629 nM.
`Cc1csc([C@H]2C[C@H]3CSC(N)=N[C@@]3(c3ccc(F)cc3F)CO2)n1` [Example 8, (4aR,6R,8aS)-8a-(2,4-Difluorophenyl)-6-(4-methyl-1,3-thiazol-2-yl)-4,4-a,5,6,8,8a-hexahydropyrano[3,4-][1,3]thiazin-2-amine]: the IC50 against BACE1 enzyme was 260 nM; in test [1], 27 nM; on BACE2 enzyme, 9720 nM.
Turning to `Cc1coc([C@H]2C[C@H]3[C@@H](C)SC(N)=N[C@@]3(c3ccc(F)cc3F)CO2)n1` [Example 22, (4R,4aR,6R,8aS)-8a-(2,4-difluorophenyl)-4-methyl-6-(4-methyl-1,3-oxazol-2-yl)-4,4a,5,6,8,8a-hexahydropyrano[3,4-d][1,3]thiazin-2-amine], the figures for the IC50 (in test [1] (Homo sapiens); against BACE2 enzyme) were 6 nM and 1400 nM, respectively.
As for `Cc1cnc([C@H]2C[C@H]3CSC(N)=N[C@@]3(c3ccc(F)cc3F)CO2)nc1` [Example 24, (4aR,6R,8aS)-8a-(2,4-difluorophenyl)-6-(5-methylpyrimidin-2-yl)-4,4a,5,6,8,8a-hexahydropyrano[3,4-d][1,3]thiazin-2-amine, trifluoroacetate salt], the results for the IC50 (on BACE1 enzyme; in test [1] (Homo sapiens); against BACE2 enzyme) were 688 nM, 24 nM and 1080 nM, respectively.
For the compound `NC1=N[C@@]2(c3ccc(F)cc3F)CO[C@@H](c3ccncn3)C[C@H]2CS1` [Example 18, (4aR,6R,8aS)-8a-(2,4-difluorophenyl)-6-(pyrimidin-4-yl)-4,4a,5,6,8,8a-hexahydropyrano[3,4-d][1,3]thiazin-2-amine], the IC50 at BACE1 enzyme came to 390 nM; in test [1] (Homo sapiens) it was 28 nM; against BACE2 enzyme it was 695 nM.
For the compound `NC1=N[C@@]2(c3ccc(F)cc3F)CO[C@@H](c3ncco3)C[C@H]2CS1` [Example 1, (4aR,6R,8aS)-8a-(2,4-Difluorophenyl)-6-(1,3-oxazol-2-yl)-4,4-a,5,6,8,8a-hexahydropyrano[3,4-][1,3]thiazin-2-amine], the values for the IC50 (on BACE1 enzyme; in test [1]; on BACE2 enzyme) were 511 nM, 32 nM and 619 nM, respectively.
Take `NC1=N[C@@]2(c3ccc(F)cc3F)CO[C@@H](c3ncccn3)C[C@H]2CS1` [Example 21, (4aR,6R,8aS)-8a-(2,4-difluorophenyl)-6-(pyrimidin-2-yl)-4,4a,5,6,8,8a-hexahydropyrano[3,4-d][1,3]thiazin-2-amine]: the IC50 against BACE1 enzyme came out at 983 nM; in test [1] (Homo sapiens), 44 nM; against BACE2 enzyme, 3090 nM.
With “(4aR,6R,8aS)-8a-(2,4-Difluorophenyl)-6-(3-methyl-1,2,4-oxadiazol-5-yl)-4,4-a,5,6,8,8a-hexahydropyrano[3,4-][1,3]thiazin-2-amine, trifluoroacetate salt [Example 13]”, the IC50 against BACE1 enzyme was 439 nM; in test [1], 34 nM; on BACE2 enzyme it was 208 nM.
`Cn1cc([C@H]2C[C@H]3CSC(N)=N[C@@]3(c3ccc(F)cc3F)CO2)cn1` [Example 7, (4aR,6R,8aS)-8a-(2,4-Difluorophenyl)-6-(1-methyl-1H-pyrazol-4-yl)-4,4-a,5,6,8,8a-hexahydropyrano[3,4-][1,3]thiazin-2-amine]: the IC50 in test [1] amounted to 5 nM; against BACE2 enzyme, 185 nM.
Turning to `Cc1ccnc([C@H]2C[C@H]3CSC(N)=N[C@@]3(c3ccc(F)cc3F)CO2)n1` [Example 12, (4aR,6R,8aS)-8a-(2,4-Difluorophenyl)-6-(4-methylpyrimidin-2-yl)-4,4-a,5,6,8,8a-hexahydropyrano[3,4-][1,3]thiazin-2-amine], the IC50 against BACE1 enzyme was found to be 1470 nM; in test [1], 50 nM.
Regarding `Cn1ccc([C@H]2C[C@H]3CSC(N)=N[C@@]3(c3ccc(F)cc3F)CO2)n1` [Example 2, (4aR,6R,8aS)-8a-(2,4-Difluorophenyl)-6-(1-methyl-1H-pyrazol-3-yl)-4,4-a,5,6,8,8a-hexahydropyrano[3,4-][1,3]thiazin-2-amine], the values for the IC50 (against BACE1 enzyme; in test [1]; on BACE2 enzyme) were 183 nM, 17 nM and 4740 nM, respectively.
Turning to `Cn1nccc1[C@H]1C[C@H]2CSC(N)=N[C@@]2(c2ccc(F)cc2F)CO1` [Example 3, (4aR,6R,8aS)-8a-(2,4-Difluorophenyl)-6-(1-methyl-1H-pyrazol-5-yl)-4,4-a,5,6,8,8a-hexahydropyrano[3,4-d][1,3]thiazin-2-amine], the IC50 against BACE1 enzyme is 7780 nM; in test [1], 636 nM.
As to `Cc1cnc([C@H]2C[C@H]3CSC(N)=N[C@@]3(c3ccc(F)cc3F)CO2)o1` [Example 5, (4aR,6R,8aS)-8a-(2,4-Difluorophenyl)-6-(5-methyl-1,3-oxazol-2-yl)-4,4-a,5,6,8,8a-hexahydropyrano[3,4-d][1,3]thiazin-2-amine], the IC50 at BACE1 enzyme was determined as 473 nM; in test [1], 23 nM; at BACE2 enzyme, 1150 nM.
As for `Cc1cc([C@H]2C[C@H]3CSC(N)=N[C@@]3(c3ccc(F)cc3F)CO2)on1` [Example 16, (4aR,6R,8aS)-8a-(2,4-Difluorophenyl)-6-(3-methyl-1,2-oxazol-5-yl)-4,4-a,5,6,8,8a-hexahydropyrano[3,4-][1,3]thiazin-2-amine], the IC50 against BACE1 enzyme stood at 59 nM; in test [1], 3 nM.
In the case of `NC1=N[C@@]2(c3ccc(F)cc3F)CO[C@@H](c3ncc(F)cn3)C[C@H]2CS1` [Example 23, (4aR,6R,8aS)-8a-(2,4-difluorophenyl)-6-(5-fluoropyrimidin-2-yl)-4,4a,5,6,8,8a-hexahydropyrano[3,4-d][1,3]thiazin-2-amine], the IC50 on BACE1 enzyme was 161 nM; in test [1] (Homo sapiens) it was 10 nM.
Turning to `NC1=N[C@@]2(c3ccc(F)cc3F)CO[C@@H](c3nnco3)C[C@H]2CS1` [Example 14, (4aR,6R,8aS)-8a-(2,4-Difluorophenyl)-6-(1,3,4-oxadiazol-2-yl)-4,4-a,5,6,8,8a-hexahydropyrano[3,4-][1,3]thiazin-2-amine], the concentration for half-maximal inhibition (IC50) at BACE1 enzyme worked out at 2210 nM; in test [1] it was 196 nM.
